Experimental data as given in ChEMBL document CHEMBL1158302, “Makaluvic acids A and B: novel alkaloids from the marine sponge Zyzzya fuliginosus” (1996).
Values after ≈ are worked out from the molar mass of the structure shown. Active and inactive are the calls of the source. The rule behind the calls is not given here.

Tested on: P388
Test: Cytotoxicity against mouse P388 cells
Type: functional
Details: for EC50: read-out: ED50 (the source's name)

SMILES	Activity	EC50 [µg/mL]
CN1CCc2c[nH]c(C(=O)O)c2C1=O	inactive	
Cn1cnc2c1c(N)nc(=O)n2C	inactive	
Cn1cc2c3c1C(=O)C(N)=CC3=NCC2 [MAKALUVAMINE A]		0.4 (≈ 1.99 µM)
Cn1cc2c3c1C(=O)C(N/C=C/c1ccc(O)cc1)=CC3=NCC2 [MAKALUVAMINE E]		0.6 (≈ 1.88 µM)
Cn1cc2c3c1C(=O)C(NCCc1ccc(O)cc1)=CC3=NCC2 [MAKALUVAMINE K]		0.7 (≈ 2.18 µM)
